Data taken from ChEMBL document CHEMBL1201862, “PubChem BioAssay data set” (2004).
Where “and” joins values, the source holds several entries; their conditions need not be identical. Equal values may be shown once.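 Five compound concentrations were applied to cells in 96-well plates for 48 hours; endpoints were derived by simple linear interpolation of the resulting dose-response curve. GI50 is the concentration that inhibits growth by half.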 Calls of active or inactive are those of the source. Cut-off read from the data, not from the text of the source: active = GI50 up to about 1.1 µM and inactive = higher.

Columns and labels:
Experiment in all cases: NCI tumour cell line growth inhibition, 48 h
CCRF-CEM = system: CCRF-CEM
HCT-15 = system: HCT-15
HOP-92 = system: HOP-92
HT-29 = system: HT-29
M14 = system: M14
OVCAR-4 = system: OVCAR-4
OVCAR-5 = system: OVCAR-5
OVCAR-8 = system: OVCAR-8
RPMI-8226 = system: RPMI-8226
SK-OV-3 = system: SK-OV-3
SNB-19 = system: SNB-19
TK-10 = system: TK-10
NCI-H522 = system: NCI-H522
SK-MEL-28 = system: SK-MEL-28

Structure (SMILES)	GI50 (CCRF-CEM)	GI50 (HCT-15)	GI50 (HOP-92)	GI50 (HT-29)	GI50 (M14)	GI50 (OVCAR-4)	GI50 (OVCAR-5)	GI50 (OVCAR-8)	GI50 (RPMI-8226)	GI50 (SK-OV-3)	GI50 (SNB-19)	GI50 (TK-10)	GI50 (NCI-H522)	GI50 (SK-MEL-28)
COC(=O)CSc1ccccc1	> 100 µM (inactive)	> 100 µM	50.9 µM (inactive)	> 100 µM (inactive)	> 100 µM (inactive)	> 100 µM (inactive)	> 100 µM (inactive)	> 100 µM (inactive)	> 100 µM (inactive)	> 100 µM (inactive)	> 100 µM (inactive)	> 100 µM (inactive)	–	–
O=c1cc(-c2ccccc2)oc2cc(OCCSCCCCCCCCCCSCCOc3ccc4c(=O)cc(-c5ccccc5)oc4c3)ccc12	> 100 µM (inactive)	> 100 µM	43.5 µM (inactive)	> 100 µM (inactive)	> 100 µM (inactive)	–	–	> 100 µM (inactive)	> 100 µM (inactive)	74.1 µM (inactive)	51.2 µM (inactive)	> 100 µM (inactive)	94.2 µM (inactive)	> 100 µM (inactive)
COC1/C(=C\C(=O)OC(C)(C)C)c2ccccc2N1C(C)=O (configuration not stated)	> 100 µM (inactive)	> 100 µM	–	> 100 µM (inactive)	> 100 µM (inactive)	> 100 µM (inactive)	–	> 100 µM (inactive)	34.8 µM (inactive)	> 100 µM (inactive)	> 100 µM (inactive)	–	–	> 100 µM (inactive)
CCCCOC1CC2(c3ccc(OC)cc3)C(=O)c3ccccc3N2O1 (configuration not stated)	31.5 µM (inactive)	> 10 µM	–	–	46.1 µM (inactive)	–	> 10 µM (inactive)	82.2 µM (inactive)	18 µM (inactive)	> 100 µM (inactive)	> 10 µM (inactive)	> 100 µM (inactive)	21.3 µM (inactive)	–
COc1ccc(/C=c2/sc3n(c2=O)NC(c2ccc(Cl)cc2)NN=3)cc1 (configuration not stated)	> 100 µM (inactive)	–	46.2 µM (inactive)	> 100 µM (inactive)	> 100 µM (inactive)	> 100 µM (inactive)	> 100 µM (inactive)	> 100 µM (inactive)	–	> 100 µM (inactive)	> 100 µM (inactive)	> 100 µM (inactive)	> 100 µM (inactive)	> 100 µM (inactive)
O=C(O)Cn1c(=O)[nH]c(=O)c2c1ncn2Cc1ccccc1	> 100 µM (inactive)	> 100 µM	> 100 µM (inactive)	> 100 µM (inactive)	> 100 µM (inactive)	–	> 100 µM (inactive)	> 100 µM (inactive)	> 100 µM (inactive)	> 100 µM (inactive)	> 100 µM (inactive)	> 100 µM (inactive)	> 100 µM (inactive)	> 100 µM (inactive)
CCCCCC(=O)Cc1cc(OC)cc2c1C(=O)Oc1cc(O)c(C(=O)O)c(CC(=O)CCCCC)c1O2	40.7 µM (inactive)	–	–	41.2 µM (inactive)	63.2 µM (inactive)	–	> 100 µM (inactive)	47.1 µM (inactive)	42 µM (inactive)	46.9 µM (inactive)	–	63.4 µM (inactive)	46.3 µM (inactive)	–
Nc1nnc2c(-c3ccccc3)n[nH]c2n1	18.5 µM (inactive)	52.1 µM	12.6 µM (inactive)	24.4 µM (inactive)	> 100 µM (inactive)	> 100 µM (inactive)	> 100 µM (inactive)	49.7 µM (inactive)	55.3 µM (inactive)	–	57.1 µM (inactive)	23 µM (inactive)	> 100 µM (inactive)	91.6 µM (inactive)
CSc1nnc2n1-c1ccccc1SCC2	> 100 µM (inactive)	> 100 µM	> 100 µM (inactive)	> 100 µM (inactive)	> 100 µM (inactive)	> 100 µM (inactive)	–	> 100 µM (inactive)	> 100 µM (inactive)	> 100 µM (inactive)	> 100 µM (inactive)	> 100 µM (inactive)	> 100 µM (inactive)	> 100 µM (inactive)
COc1nc(/C=N/NC(N)=S)nc(OC)n1	–	–	> 100 µM (inactive)	76 µM (inactive)	55.1 µM (inactive)	> 100 µM (inactive)	> 100 µM (inactive)	56.9 µM (inactive)	> 100 µM (inactive)	> 100 µM (inactive)	> 100 µM (inactive)	> 100 µM (inactive)	75.5 µM (inactive)	> 100 µM (inactive)
CCCCCCCCCCCCCP(=O)(O)OCC	> 100 µM (inactive)	> 100 µM	> 100 µM (inactive)	> 100 µM (inactive)	> 100 µM (inactive)	> 100 µM (inactive)	> 100 µM (inactive)	> 100 µM (inactive)	–	–	> 100 µM (inactive)	> 100 µM (inactive)	> 100 µM (inactive)	> 100 µM (inactive)
CC(C)OP(=S)(NC(=S)c1ccccc1)OC(C)C	> 100 µM (inactive)	> 100 µM	> 100 µM (inactive)	> 100 µM (inactive)	> 100 µM (inactive)	> 100 µM (inactive)	> 100 µM (inactive)	> 100 µM (inactive)	–	> 100 µM (inactive)	> 100 µM (inactive)	> 100 µM (inactive)	–	> 100 µM (inactive)
NCCCC1NC(=O)/C(=C(O)/C=C/C2CCC[C@@H]2CC2SCCS2)C1=O (some centres not stated)	54.1 µM (inactive)	–	38.3 µM (inactive)	> 100 µM (inactive)	> 100 µM (inactive)	> 100 µM (inactive)	> 100 µM (inactive)	> 100 µM (inactive)	> 100 µM (inactive)	> 100 µM (inactive)	> 100 µM (inactive)	> 100 µM (inactive)	29 µM (inactive)	> 100 µM (inactive)
COC(=O)CC(C(C(C)=O)C(=O)OCc1ccccc1)N1C(=O)OC(c2ccccc2)C1c1ccccc1 (configuration not stated)	72.4 µM (inactive) and 73.8 µM (inactive)	52.2 µM and 62.5 µM	–	> 100 µM (inactive)	–	–	–	70.3 µM (inactive) and 71.1 µM (inactive)	28.8 µM (inactive) and 33.5 µM (inactive)	> 100 µM (inactive)	–	> 100 µM (inactive)	38.3 µM (inactive) and 22.9 µM (inactive)	65.9 µM (inactive) and 97.7 µM (inactive)
Cc1nc(-c2nc(C)c(C(=O)NNC(=O)C[n+]3ccccc3)s2)sc1C(=O)NNC(=O)C[n+]1ccccc1	41.3 µM (inactive)	56.4 µM	27.5 µM (inactive)	> 100 µM (inactive)	> 100 µM (inactive)	–	> 100 µM (inactive)	> 100 µM (inactive)	64.6 µM (inactive)	87.5 µM (inactive)	25.4 µM (inactive)	> 100 µM (inactive)	–	> 100 µM (inactive)
c1ccc2c(CNCCCCCCCCNCc3cccc4ccccc34)cccc2c1	1.85 µM (inactive)	1.73 µM	2.49 µM (inactive)	1.8 µM (inactive)	1.75 µM (inactive)	2.3 µM (inactive)	2 µM (inactive)	1.86 µM (inactive)	1.67 µM (inactive)	17.1 µM (inactive)	–	1.66 µM (inactive)	1.79 µM (inactive)	1.9 µM (inactive)
